Source: ChEMBL document CHEMBL1148515, “Enantiomerically pure 1,4-benzodiazepine-2,5-diones as Hdm2 antagonists” (Bioorg Med Chem Lett, 2006)

Assays:
Assay type in all cases: functional
[1] = test system: JAR; experiment: Increase in caspase3/7 production in human JAR cells at 50 uM relative to control
[2] = test system: JAR; experiment: Increase in caspase3/7 production in human JAR cells at 10 uM relative to control
[3] = test system: JAR; experiment: Increase in caspase3/7 production in human JAR cells at 25 uM relative to control

Structure (SMILES)	Activity [1]	Activity [2]	Activity [3]
C[C@H](c1ccc(Cl)cc1)N1C(=O)c2cc(I)ccc2N(CCCCC(=O)O)C(=O)[C@@H]1c1ccc(Cl)cc1	1.97	0.97	1.37
COCCOCCN1C(=O)[C@H](c2ccc(Cl)cc2)N([C@H](C)c2ccc(Cl)cc2N)C(=O)c2cc(I)ccc21	2.92	1.29	2.84
C[C@H](c1ccc(Cl)cc1N)N1C(=O)c2cc(I)ccc2N(CCN2CCOCC2)C(=O)[C@@H]1c1ccc(Cl)cc1	2.89	0.9	2.87
